The supplement of paper PMC10883282

How the values were obtained:
Test in all cases: standardised AUC of viability dose-response curve (72 h) (fraction (0-1)); higher = less growth inhibition (more resistant)
[1] = tested on: MES-SA
Method in brief: (§1)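 Sarcoma cell lines in 384-well plates were treated in triplicate for 72 h with 2.5 µl of compound dilution series (compound-plate series 10 mM to 0.0002 mM, 1:3 steps). ATPLite viability was scaled 1 (full) to 0 (none) and fitted per drug and cell line with a four-parameter log-logistic model. The standardised area under the dose-response curve in log-dose space (modified drexplorer computeAUC) runs from 1 (no response) to 0 (full response).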

[2] = tested on: KHOS-NP
Method in brief: as §1

[3] = tested on: SYO-1
Method in brief: as §1

[4] = tested on: A204
Method in brief: as §1

[5] = tested on: SW684
Method in brief: as §1

[6] = tested on: SW982
Method in brief: as §1

[7] = tested on: SK-ES-1
Method in brief: as §1

[8] = tested on: SW872
Method in brief: as §1

[9] = tested on: KHOS-240S
Method in brief: as §1

[10] = tested on: SW1353
Method in brief: as §1

[11] = tested on: SK-LMS-1
Method in brief: as §1

[12] = tested on: G401
Method in brief: as §1

[13] = tested on: VA-ES-BJ
Method in brief: as §1

[14] = tested on: HT1080
Method in brief: as §1

[15] = tested on: RD
Method in brief: as §1

[16] = tested on: HS729
Method in brief: as §1

[17] = tested on: RD-ES
Method in brief: as §1

Compound: COC(=O)N[C@@H](C)CNc1nccc(-c2cn(C(C)C)nc2-c2cc(Cl)cc(NS(C)(=O)=O)c2F)n1 [ENCORAFENIB]
- standardised AUC [1]: 0.9
- standardised AUC [2]: 0.903
- standardised AUC [3]: 0.977
- standardised AUC [4]: 0.922
- standardised AUC [5]: 0.961
- standardised AUC [6]: 0.818
- standardised AUC [7]: 0.843
- standardised AUC [8]: 0.665
- standardised AUC [9]: 0.956
- standardised AUC [10]: 0.941
- standardised AUC [11]: 0.887
- standardised AUC [12]: 0.922
- standardised AUC [13]: 0.923
- standardised AUC [14]: 0.933
- standardised AUC [15]: 0.896
- standardised AUC [16]: 0.925
- standardised AUC [17]: 0.903

Compound: CN1CCN(c2ccc(C(=O)Nc3n[nH]c4ccc(Cc5cc(F)cc(F)c5)cc34)c(NC3CCOCC3)c2)CC1 [ENTRECTINIB]
- standardised AUC [1]: 0.933
- standardised AUC [2]: 0.973
- standardised AUC [3]: 0.868
- standardised AUC [4]: 0.944
- standardised AUC [5]: 0.927
- standardised AUC [6]: 0.885
- standardised AUC [7]: 0.87
- standardised AUC [8]: 0.893
- standardised AUC [9]: 0.901
- standardised AUC [10]: 0.924
- standardised AUC [11]: 0.928
- standardised AUC [12]: 0.904
- standardised AUC [13]: 0.957
- standardised AUC [14]: 0.957
- standardised AUC [15]: 0.888
- standardised AUC [16]: 0.915
- standardised AUC [17]: 0.88

Compound: Cn1cc(C2=C(c3cn(C4CCN(Cc5ccccn5)CC4)c4ccccc34)C(=O)NC2=O)c2ccccc21 [ENZASTAURIN]
- standardised AUC [1]: 0.988
- standardised AUC [2]: 0.992
- standardised AUC [3]: 0.965
- standardised AUC [4]: 0.979
- standardised AUC [5]: 0.961
- standardised AUC [6]: 0.961
- standardised AUC [7]: 0.986
- standardised AUC [8]: 0.973
- standardised AUC [9]: 0.978
- standardised AUC [10]: 0.943
- standardised AUC [11]: 0.953
- standardised AUC [12]: 1
- standardised AUC [13]: 1
- standardised AUC [14]: 1
- standardised AUC [15]: 0.995
- standardised AUC [16]: 0.995
- standardised AUC [17]: 1

Compound: O=S(=O)(c1cccc2cnccc12)N1CCCNCC1 [FASUDIL]
- standardised AUC [1]: 0.993
- standardised AUC [2]: 0.994
- standardised AUC [3]: 0.997
- standardised AUC [4]: 0.981
- standardised AUC [5]: 0.978
- standardised AUC [6]: 0.991
- standardised AUC [7]: 1
- standardised AUC [8]: 0.992
- standardised AUC [9]: 0.982
- standardised AUC [10]: 0.981
- standardised AUC [11]: 0.986
- standardised AUC [12]: 1
- standardised AUC [13]: 0.996
- standardised AUC [14]: 0.997
- standardised AUC [15]: 1
- standardised AUC [16]: 0.982
- standardised AUC [17]: 1

Compound: O=C(Nc1nc2cccc(-c3ccc(CN4CCS(=O)(=O)CC4)cc3)n2n1)C1CC1 [FILGOTINIB]
- standardised AUC [1]: 0.987
- standardised AUC [2]: 0.991
- standardised AUC [3]: 0.892
- standardised AUC [4]: 0.985
- standardised AUC [5]: 0.994
- standardised AUC [6]: 0.993
- standardised AUC [7]: 0.981
- standardised AUC [8]: 0.979
- standardised AUC [9]: 0.991
- standardised AUC [10]: 0.949
- standardised AUC [11]: 0.987
- standardised AUC [12]: 0.993
- standardised AUC [13]: 0.96
- standardised AUC [14]: 0.991
- standardised AUC [15]: 0.985
- standardised AUC [16]: 0.906
- standardised AUC [17]: 0.998

Compound: COc1cc(Nc2ncc(F)c(Nc3ccc4c(n3)N(COP(=O)(O)O)C(=O)C(C)(C)O4)n2)cc(OC)c1OC [FOSTAMATINIB]
- standardised AUC [1]: 0.885
- standardised AUC [2]: 0.911
- standardised AUC [3]: 0.779
- standardised AUC [4]: 0.774
- standardised AUC [5]: 0.886
- standardised AUC [6]: 0.755
- standardised AUC [7]: 0.757
- standardised AUC [8]: 0.803
- standardised AUC [9]: 0.798
- standardised AUC [10]: 0.819
- standardised AUC [11]: 0.854
- standardised AUC [12]: 0.842
- standardised AUC [13]: 0.845
- standardised AUC [14]: 0.968
- standardised AUC [15]: 0.906
- standardised AUC [16]: 0.871
- standardised AUC [17]: 0.857

Compound: Cc1cccc(-c2nn3c(c2-c2ccnc4ccc(C(N)=O)cc24)CCC3)n1 [GALUNISERTIB]
- standardised AUC [1]: 0.969
- standardised AUC [2]: 0.956
- standardised AUC [3]: 0.853
- standardised AUC [4]: 0.976
- standardised AUC [5]: 0.992
- standardised AUC [6]: 0.992
- standardised AUC [7]: 0.968
- standardised AUC [8]: 0.962
- standardised AUC [9]: 0.955
- standardised AUC [10]: 0.976
- standardised AUC [11]: 0.974
- standardised AUC [12]: 0.993
- standardised AUC [13]: 1
- standardised AUC [14]: 0.982
- standardised AUC [15]: 0.998
- standardised AUC [16]: 0.91
- standardised AUC [17]: 0.972

Compound: CN1CC[C@@H](NC(=O)Nc2ccc(C#N)cc2)C[C@@H]1c1nc2ccccc2[nH]1 [GLASDEGIB]
- standardised AUC [1]: 0.976
- standardised AUC [2]: 0.992
- standardised AUC [3]: 0.976
- standardised AUC [4]: 0.982
- standardised AUC [5]: 0.99
- standardised AUC [6]: 0.991
- standardised AUC [7]: 0.953
- standardised AUC [8]: 0.988
- standardised AUC [9]: 0.991
- standardised AUC [10]: 0.988
- standardised AUC [11]: 0.982
- standardised AUC [12]: 0.976
- standardised AUC [13]: 0.984
- standardised AUC [14]: 0.988
- standardised AUC [15]: 0.987
- standardised AUC [16]: 0.985
- standardised AUC [17]: 0.959

Compound: CC(C)NC[C@@H](C(=O)N1CCN(c2ncnc3c2[C@H](C)C[C@H]3O)CC1)c1ccc(Cl)cc1 [IPATASERTIB]
- standardised AUC [1]: 0.781
- standardised AUC [2]: 0.954
- standardised AUC [3]: 0.791
- standardised AUC [4]: 0.843
- standardised AUC [5]: 0.848
- standardised AUC [6]: 0.916
- standardised AUC [7]: 0.851
- standardised AUC [8]: 0.805
- standardised AUC [9]: 0.921
- standardised AUC [10]: 0.891
- standardised AUC [11]: 0.885
- standardised AUC [12]: 0.836
- standardised AUC [13]: 0.769
- standardised AUC [14]: 0.969
- standardised AUC [15]: 0.898
- standardised AUC [16]: 0.817
- standardised AUC [17]: 0.848

Compound: COC(=O)[C@@]1(O)C[C@H]2O[C@]1(C)n1c3ccccc3c3c4c(c5c6ccccc6n2c5c31)C(=O)NC4 [K-252A]
- standardised AUC [1]: 0.631
- standardised AUC [2]: 0.776
- standardised AUC [3]: 0.668
- standardised AUC [4]: 0.617
- standardised AUC [5]: 0.774
- standardised AUC [6]: 0.628
- standardised AUC [7]: 0.543
- standardised AUC [8]: 0.68
- standardised AUC [9]: 0.717
- standardised AUC [10]: 0.766
- standardised AUC [11]: 0.666
- standardised AUC [12]: 0.745
- standardised AUC [13]: 0.7
- standardised AUC [14]: 0.818
- standardised AUC [15]: 0.81
- standardised AUC [16]: 0.756
- standardised AUC [17]: 0.647

Compound: CCC(=O)N1CC[C@H](Nc2ncnc3c2CN(c2cnc(OC)c(C(F)(F)F)c2)CC3)C1 [LENIOLISIB]
- standardised AUC [1]: 0.955
- standardised AUC [2]: 0.97
- standardised AUC [3]: 0.923
- standardised AUC [4]: 0.929
- standardised AUC [5]: 0.83
- standardised AUC [6]: 0.955
- standardised AUC [7]: 0.96
- standardised AUC [8]: 0.947
- standardised AUC [9]: 0.962
- standardised AUC [10]: 0.934
- standardised AUC [11]: 0.927
- standardised AUC [12]: 0.929
- standardised AUC [13]: 0.955
- standardised AUC [14]: 0.961
- standardised AUC [15]: 0.988
- standardised AUC [16]: 0.935
- standardised AUC [17]: 0.95

Compound: C[C@]12O[C@H](C[C@]1(O)CO)n1c3ccccc3c3c4c(c5c6ccccc6n2c5c31)CNC4=O [LESTAURTINIB]
- standardised AUC [1]: 0.64
- standardised AUC [2]: 0.762
- standardised AUC [3]: 0.656
- standardised AUC [4]: 0.646
- standardised AUC [5]: 0.805
- standardised AUC [6]: 0.614
- standardised AUC [7]: 0.526
- standardised AUC [8]: 0.655
- standardised AUC [9]: 0.72
- standardised AUC [10]: 0.764
- standardised AUC [11]: 0.721
- standardised AUC [12]: 0.821
- standardised AUC [13]: 0.667
- standardised AUC [14]: 0.802
- standardised AUC [15]: 0.821
- standardised AUC [16]: 0.762
- standardised AUC [17]: 0.62
